Patent US20070129419A1, “Serotonin transporter (SERT) inhibitors for the treatment of depression and anxiety” (priority 2005, published 2007)
Like-named read-outs stand apart in the source and are kept apart here.

Columns and labels:
recombinant human SERT = molecular target: T1, recombinant human SERT (Homo sapiens, UniProt P31645); test: hSERT SPA binding assay ([3H]citalopram displacement, HEK-293 membranes)
T1 construct: expressed in transfected cells; membrane preparation
Method: HEK-293 cells stably expressing recombinant human SERT are maintained with DMEM high glucose with 10% FBS, 300 μg/ml G418 and 2 mM L-Glutamine and incubated at 37° C. with 5% CO2. Cells are released from culture flasks using PBS for 1-2 min. The cells are subsequently centrifuged at 1000 g's for 5 min and resuspended in PBS prior to being used in the membrane preparation.
Cells are homogenized using a Polytron in 50 mM Tris (pH 7.4). Centrifuged at 48,000×g for 15 min, and the pellet resuspended in fresh buffer. After a second centrifugation, the pellet is re-homogenized and resuspended in fresh buffer. Typically, membrane portions are aliquoted in 3 mg/ml (w:v). and stored at −80° C.
A serial dilution of test compounds in 50 mM Tris-HCl, 120 mM NaCl, KCl 5 mM (pH 7.4) is made in a white Optiplate (Packard) (100 μl/well) and the radioligand ^3[H] Citalopram (Specific activity: 60-86 Ci/mmol, Final concentration: 1 nM) is added at 50 μl/well. Membrane and beads are prepared to a ratio of 5 μg:0.6 mg, with 0.6 mg PVT-WGA Amersham beads (Cat#RPQ0282V) added per well. 50 μl of the membrane/bead mixture is added to the assay plate for a final volume of 200 μl. The mixtures are allowed to stand at room temperature for one hour, and are then counted on a Packard TopCount.
The % inhibition is calculated for each compound tested (with 100% binding being the value obtained with the incubation of membrane/beads and radioligand in buffer without compound minus the non-specific binding measured in presence of 10 μM Fluoxetine). The concentration producing 50% inhibition (IC50) is determined using an iterative non-linear curve fitting technique. The inhibition dissociation constant (Ki) of each compound is determined according to the method of Cheng-Prusoff, decribed in Biochem. Pharmacol., 1973, 22(23), pages 3099-3108.

human NK-1 receptor = molecular target: T2, human NK-1 receptor (Homo sapiens, UniProt P25103); test: hNK-1 binding assay ([3H]substance P displacement, CHO cells); conditions: [3H]substance P 0.6 nM, CHO cells transfected with human NK-1 receptor; read-out: pKi hNK1 (converted)
T2 construct: expressed in transfected cells; host or cells: CHO cells, Semliki virus expression system; membrane suspension
T2 sequence (P25103 whole entry): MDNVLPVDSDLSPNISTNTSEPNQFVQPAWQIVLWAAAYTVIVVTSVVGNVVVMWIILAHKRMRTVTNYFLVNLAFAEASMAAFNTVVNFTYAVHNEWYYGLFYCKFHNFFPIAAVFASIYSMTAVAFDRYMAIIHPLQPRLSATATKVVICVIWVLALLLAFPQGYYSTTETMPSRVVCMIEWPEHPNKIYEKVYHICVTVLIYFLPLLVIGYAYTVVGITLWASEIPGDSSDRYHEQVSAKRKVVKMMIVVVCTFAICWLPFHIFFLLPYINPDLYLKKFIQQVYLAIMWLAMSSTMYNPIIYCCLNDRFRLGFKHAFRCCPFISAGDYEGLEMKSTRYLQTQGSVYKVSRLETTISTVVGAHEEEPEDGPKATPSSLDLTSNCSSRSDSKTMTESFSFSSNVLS
Method: The affinity of test compounds for the NK-1 receptor was evaluated at human NK-1 receptors in CHO cells transfected with the human NK-1 receptor using the Semliki virus expression system and radiolabelled with [^3H]substance P (final concentration 0.6 nM). Binding assays were performed in HEPES buffer (50 mM, pH 7.4) containing BSA (0.04%) leupeptin (8 μg/ml), MnCl2 (3 mM) and phosphoramidon (2 μM). Binding assays consisted of 250 μl of membrane suspension (1.25×10^5 cells/assay tube), 125 μl of buffer of displacing agent and 125 μl of [^3H]substance P. Displacement curves were determined with at least ten concentrations of the compound. The assay tubes were incubated for 60 min at room temperature after which time the tube contents were rapidly filtered under vacuum through GF/C filters presoaked for 60 min with PEI (0.3%) with 2×2 ml washes of HEPES buffer (50 mM, pH 7.4). The radioactivity retained on the filters was measured by scintillation counting. All assays were performed in duplicate in at least 2 separate experiments.
The inhibition dissociation constant (Ki) of each compound for NK1 is determined as described above for hSERT.

[1] = [3H]citalopram 1 nM, HEK-293 membranes expressing human SERT, read-out: pKi hSERT (converted)

T1 sequence (P31645 whole entry): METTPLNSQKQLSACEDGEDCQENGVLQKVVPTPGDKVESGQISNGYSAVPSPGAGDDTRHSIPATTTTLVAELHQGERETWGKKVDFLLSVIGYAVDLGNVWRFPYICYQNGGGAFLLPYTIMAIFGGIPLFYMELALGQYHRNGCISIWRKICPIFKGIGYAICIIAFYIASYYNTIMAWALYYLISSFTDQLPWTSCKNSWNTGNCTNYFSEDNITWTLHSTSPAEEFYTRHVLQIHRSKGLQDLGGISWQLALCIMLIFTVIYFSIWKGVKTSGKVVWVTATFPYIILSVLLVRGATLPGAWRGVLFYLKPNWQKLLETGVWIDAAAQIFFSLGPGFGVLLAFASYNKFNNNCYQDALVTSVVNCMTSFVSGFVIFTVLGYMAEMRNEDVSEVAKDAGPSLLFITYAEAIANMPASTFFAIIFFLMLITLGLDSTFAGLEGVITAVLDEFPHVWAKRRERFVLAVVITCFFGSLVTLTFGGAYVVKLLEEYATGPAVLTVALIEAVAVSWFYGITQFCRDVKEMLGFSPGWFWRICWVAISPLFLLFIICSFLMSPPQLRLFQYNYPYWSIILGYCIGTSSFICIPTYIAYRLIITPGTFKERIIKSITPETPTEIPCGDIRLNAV

Row | Ki (human NK-1 receptor) | Ki (recombinant human SERT; [1]) | SMILES | Ki (recombinant human SERT)
1 | 46.8 nM | 5.89 nM | Fc1cccc([C@@H]2CNC[C@@H]2COCc2cc(C(F)(F)F)cc(C(F)(F)F)c2)c1 [2 of I] | 
2 | 50.1 nM | 3.47 nM | Fc1ccccc1[C@@H]1CNC[C@@H]1COCc1cc(C(F)(F)F)cc(C(F)(F)F)c1 [3 of I] | 
3 | 31.6 nM | 8.13 nM | FC(F)(F)c1cc(COC[C@H]2CNC[C@H]2c2cccc(Cl)c2)cc(C(F)(F)F)c1 [5 of I] | 
4 | 43.7 nM | 10.2 nM | FC(F)(F)c1cc(COC[C@H]2CNC[C@H]2c2ccccc2Cl)cc(C(F)(F)F)c1 [6 of I] | 
5 | 28.8 nM | 7.59 nM | Cc1ccccc1[C@@H]1CNC[C@@H]1COCc1cc(C(F)(F)F)cc(C(F)(F)F)c1 [7 of I] | 
6 | 43.7 nM | 4.9 nM | FC(F)(F)c1cc(COC[C@H]2CNC[C@H]2c2ccccc2)cc(C(F)(F)F)c1 [8 of I] | 
7 | 41.7 nM | 5.89 nM | Brc1cc(Br)cc(COC[C@H]2CNCC2c2ccccc2)c1 (stereo partly shown) [9 of I] | 
8 | 257 nM | 4.57 nM | Cc1cc(C)cc(COC[C@H]2CNC[C@H]2c2ccccc2)c1 [10 of I] | 
9 | 224 nM | 5.75 nM | Fc1cc(COC[C@H]2CNC[C@H]2c2ccccc2)cc(C(F)(F)F)c1 [11 of I] | 
10 | 676 nM | 11 nM | FC(F)(F)c1cccc(COC[C@H]2CNC[C@H]2c2ccccc2)c1 [12 of I] | 
11 | 759 nM | 13.8 nM | FC(F)(F)Oc1cccc(COC[C@H]2CNC[C@H]2c2ccccc2)c1 [13 of I] | 
12 | 741 nM | 20.4 nM | COc1cc(COC[C@H]2CNC[C@H]2c2ccccc2)cc(OC)c1 [14 of I] | 
13 | 646 nM | 70.8 nM | FC(F)(F)c1ccccc1COC[C@H]1CNC[C@H]1c1ccccc1 [15 of I] | 
14 | 26.3 nM | 22.9 nM | FC(F)(F)c1cc(CNC[C@H]2CNC[C@H]2c2ccccc2)cc(C(F)(F)F)c1 [16 of I] | 
15 | 31.6 nM | 8.13 nM | CN(Cc1cc(C(F)(F)F)cc(C(F)(F)F)c1)C[C@H]1CNC[C@H]1c1ccccc1 [17 of I] | 

Row | SMILES | Ki (human NK-1 receptor) | Ki (recombinant human SERT; [1]) | Ki (recombinant human SERT)
16 | Fc1ccc([C@@H]2CNC[C@@H]2COCc2cc(C(F)(F)F)cc(C(F)(F)F)c2)cc1 [1 of I] | 295 nM |  | 2.75 nM
17 | FC(F)(F)c1cc(COC[C@H]2CNC[C@H]2c2ccc(Cl)cc2)cc(C(F)(F)F)c1 [4 of I] | 53.7 nM | 4.47 nM | 
